Assay results reported in the supplement of paper PMC10627819.

How the values were obtained:
Conditions in all cases: main component drawn
S. aureus Newman [1] = assay: fitness (endpoint OD595 vs no drug) (fraction); higher = more growth
Outline: (§1)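 Fitness was defined as the optical density at the transition into stationary phase relative to the robust mean of no-drug control wells. Values were capped at 1. Cultures were started at OD595 0.01 in 384-well plates (30 µl, or 55 µl for S. pneumoniae) in TSB, LB Lennox or CY at 37 °C. OD595 was recorded every 30 min over 14 h, with the first reading subtracted as background.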

S. pneumoniae D39V [2] = assay: as above
Outline: as §1

B. subtilis 168 [3] = assay: as above
Outline: as §1

S. aureus Newman [4] = assay: Bliss interaction score (quartile over a dose matrix) (fitness difference); higher = more antagonism (negative = synergy)
Outline: (§2)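 Combination data were used to infer fitness under each single drug. Fitness is the OD595 at entry into stationary phase divided by the robust mean of the plate's no-drug wells, with a cap of 1. The Bliss score is the observed minus the expected product fitness, summarised by quartiles over technical, biological and donor/recipient replicates.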

S. pneumoniae D39V [5] = assay: as above
Outline: as §2

S. aureus DSM 20231 = assay: as above
Outline: as §2

B. subtilis 168 [6] = assay: as above
Outline: as §2
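Throughout, for Bliss interaction score (quartile over a dose matrix): first quartile when negative (synergy) and third quartile when positive (antagonism).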

## CO/N=C(\C(=O)N[C@@H]1C(=O)N2C(C(=O)O)=C(COC(C)=O)CS[C@H]12)c1csc(N)n1 [Cefotaxime] + CC(C1CCC(C(O1)OC2C(CC(C(C2O)OC3C(C(C(CO3)(C)O)NC)O)N)N)N)NC [Gentamicin]
S. aureus Newman [1]; first compound 0.039 µg/mL, partner 0.5 µg/mL, one replicate
  fitness: 0.79
S. aureus Newman [1]; first compound 0.039 µg/mL, partner 1 µg/mL, one replicate
  fitness: 0.857
S. aureus Newman [1]; first compound 0.039 µg/mL, partner 2 µg/mL, one replicate
  fitness: 0.951
S. aureus Newman [1]; first compound 0.078 µg/mL, partner 0.375 µg/mL, one replicate
  fitness: 0.757
S. aureus Newman [1]; first compound 0.078 µg/mL, partner 0.5 µg/mL, one replicate
  fitness: 0.821
S. aureus Newman [1]; first compound 0.078 µg/mL, partner 0.75 µg/mL, one replicate
  fitness: 0.772
S. aureus Newman [1]; first compound 0.078 µg/mL, partner 1 µg/mL, one replicate
  fitness: 0.8
S. aureus Newman [1]; first compound 0.078 µg/mL, partner 1.5 µg/mL, one replicate
  fitness: 0.759
S. aureus Newman [1]; first compound 0.078 µg/mL, partner 2 µg/mL, one replicate
  fitness: 0.977
S. aureus Newman [1]; first compound 0.156 µg/mL, partner 0.375 µg/mL, one replicate
  fitness: 0.52
S. aureus Newman [1]; first compound 0.156 µg/mL, partner 0.5 µg/mL, one replicate
  fitness: 0.744
S. aureus Newman [1]; first compound 0.156 µg/mL, partner 0.75 µg/mL, one replicate
  fitness: 0.533
S. aureus Newman [1]; first compound 0.156 µg/mL, partner 1 µg/mL, one replicate
  fitness: 0.763
S. aureus Newman [1]; first compound 0.156 µg/mL, partner 1.5 µg/mL, one replicate
  fitness: 0.595
S. aureus Newman [1]; first compound 0.156 µg/mL, partner 2 µg/mL, one replicate
  fitness: 0.872
S. aureus Newman [1]; first compound 0.312 µg/mL, partner 0.375 µg/mL, one replicate
  fitness: 0.345
S. aureus Newman [1]; first compound 0.312 µg/mL, partner 0.75 µg/mL, one replicate
  fitness: 0.389
S. aureus Newman [1]; first compound 0.312 µg/mL, partner 1.5 µg/mL, one replicate
  fitness: 0.399
S. aureus Newman [1]; first compound 0.625 µg/mL, partner 0.375 µg/mL, one replicate
  fitness: 0.0576
S. aureus Newman [1]; first compound 0.625 µg/mL, partner 0.5 µg/mL
  fitness: 0.389
S. aureus Newman [1]; first compound 0.625 µg/mL, partner 0.75 µg/mL, one replicate
  fitness: 0.0523
S. aureus Newman [1]; first compound 0.625 µg/mL, partner 1 µg/mL
  fitness: 0.44
S. aureus Newman [1]; first compound 0.625 µg/mL, partner 1.5 µg/mL, one replicate
  fitness: 0.0345
S. aureus Newman [1]; first compound 0.625 µg/mL, partner 2 µg/mL
  fitness: 0.397
S. aureus Newman [1]; first compound 1.25 µg/mL, partner 0.375 µg/mL, one replicate
  fitness: 0.0504
S. aureus Newman [1]; first compound 1.25 µg/mL, partner 0.5 µg/mL
  fitness: 0.0594
S. aureus Newman [1]; first compound 1.25 µg/mL, partner 0.75 µg/mL, one replicate
  fitness: 0.0617
S. aureus Newman [1]; first compound 1.25 µg/mL, partner 1 µg/mL
  fitness: 0.0679
S. aureus Newman [1]; first compound 1.25 µg/mL, partner 1.5 µg/mL, one replicate
  fitness: 0.0569
S. aureus Newman [1]; first compound 1.25 µg/mL, partner 2 µg/mL
  fitness: 0.0372
S. aureus Newman [1]; first compound 2.5 µg/mL, partner 0.375 µg/mL, one replicate
  fitness: 0.0422
S. aureus Newman [1]; first compound 2.5 µg/mL, partner 0.5 µg/mL
  fitness: 0.0199
S. aureus Newman [1]; first compound 2.5 µg/mL, partner 0.75 µg/mL, one replicate
  fitness: 0.074
S. aureus Newman [1]; first compound 2.5 µg/mL, partner 1 µg/mL
  fitness: 0.0366
S. aureus Newman [1]; first compound 2.5 µg/mL, partner 1.5 µg/mL, one replicate
  fitness: 0.0764
S. aureus Newman [1]; first compound 2.5 µg/mL, partner 2 µg/mL
  fitness: 0.0507
S. pneumoniae D39V [2]; first compound 0.0018 µg/mL, partner 2 µg/mL
  fitness: 0.999
S. pneumoniae D39V [2]; first compound 0.0018 µg/mL, partner 4 µg/mL
  fitness: 0.988
S. pneumoniae D39V [2]; first compound 0.0018 µg/mL, partner 8 µg/mL
  fitness: 0.971
S. pneumoniae D39V [2]; first compound 0.0035 µg/mL, partner 2 µg/mL
  fitness: 0.967
S. pneumoniae D39V [2]; first compound 0.0035 µg/mL, partner 4 µg/mL
  fitness: 0.956
S. pneumoniae D39V [2]; first compound 0.0035 µg/mL, partner 8 µg/mL
  fitness: 0.917
S. pneumoniae D39V [2]; first compound 0.007 µg/mL, partner 2 µg/mL
  fitness: 0.895
S. pneumoniae D39V [2]; first compound 0.007 µg/mL, partner 4 µg/mL
  fitness: 0.896
S. pneumoniae D39V [2]; first compound 0.007 µg/mL, partner 8 µg/mL
  fitness: 0.867
B. subtilis 168 [3]; first compound 0.00775 µg/mL, partner 0.0625 µg/mL, one replicate
  fitness: 0.66
B. subtilis 168 [3]; first compound 0.00775 µg/mL, partner 0.125 µg/mL, one replicate
  fitness: 0.0541
B. subtilis 168 [3]; first compound 0.00775 µg/mL, partner 0.25 µg/mL, one replicate
  fitness: 0.0723
B. subtilis 168 [3]; first compound 0.0155 µg/mL, partner 0.0625 µg/mL, one replicate
  fitness: 0.16
B. subtilis 168 [3]; first compound 0.0155 µg/mL, partner 0.125 µg/mL, one replicate
  fitness: 0.0431
B. subtilis 168 [3]; first compound 0.0155 µg/mL, partner 0.25 µg/mL, one replicate
  fitness: 0.0419
B. subtilis 168 [3]; first compound 0.031 µg/mL, partner 0.0625 µg/mL, one replicate
  fitness: 0.0439
B. subtilis 168 [3]; first compound 0.031 µg/mL, partner 0.125 µg/mL, one replicate
  fitness: 0.0439
B. subtilis 168 [3]; first compound 0.031 µg/mL, partner 0.25 µg/mL, one replicate
  fitness: 0.0452
B. subtilis 168 [3]; first compound 0.0625 µg/mL, partner 0.0625 µg/mL, one replicate
  fitness: 0.754
B. subtilis 168 [3]; first compound 0.0625 µg/mL, partner 0.125 µg/mL, one replicate
  fitness: 0.701
B. subtilis 168 [3]; first compound 0.0625 µg/mL, partner 0.25 µg/mL, one replicate
  fitness: 0.155
B. subtilis 168 [3]; first compound 0.125 µg/mL, partner 0.0625 µg/mL, one replicate
  fitness: 0.65
B. subtilis 168 [3]; first compound 0.125 µg/mL, partner 0.125 µg/mL, one replicate
  fitness: 0.449
B. subtilis 168 [3]; first compound 0.125 µg/mL, partner 0.25 µg/mL, one replicate
  fitness: 0.103
B. subtilis 168 [3]; first compound 0.25 µg/mL, partner 0.0625 µg/mL, one replicate
  fitness: 0.581
B. subtilis 168 [3]; first compound 0.25 µg/mL, partner 0.125 µg/mL, one replicate
  fitness: 0.22
B. subtilis 168 [3]; first compound 0.25 µg/mL, partner 0.25 µg/mL, one replicate
  fitness: 0.129
B. subtilis 168 [3]; first compound 0.5 µg/mL, partner 0.0625 µg/mL
  fitness: 0.155
B. subtilis 168 [3]; first compound 0.5 µg/mL, partner 0.125 µg/mL
  fitness: 0.055
B. subtilis 168 [3]; first compound 0.5 µg/mL, partner 0.25 µg/mL
  fitness: 0.0842
B. subtilis 168 [3]; first compound 1 µg/mL, partner 0.0625 µg/mL
  fitness: 0.0509
B. subtilis 168 [3]; first compound 1 µg/mL, partner 0.125 µg/mL
  fitness: 0.04
B. subtilis 168 [3]; first compound 1 µg/mL, partner 0.25 µg/mL
  fitness: 0.0527
B. subtilis 168 [3]; first compound 2 µg/mL, partner 0.0625 µg/mL
  fitness: 0.0909
B. subtilis 168 [3]; first compound 2 µg/mL, partner 0.125 µg/mL
  fitness: 0.0759
B. subtilis 168 [3]; first compound 2 µg/mL, partner 0.25 µg/mL
  fitness: 0.0872
S. aureus Newman [4]
  Bliss interaction score: 0.0788
S. pneumoniae D39V [5]
  Bliss interaction score: 0.0656
S. aureus DSM 20231
  Bliss interaction score: 0.0541
B. subtilis 168 [6]
  Bliss interaction score: -0.0898
